In data set [1] the test system is NOS-10 cells. Kind of data set: Cell viability (CellTiter-Glo). The format is cell-based, human. The conditions noted are these: for IC50 value / growth inhibitory effect: IGF-1R inhibitor in combination with Mcl-1 inhibitors such as obatoclax, AZD5991, and MIK665, Fig. 5-1; for IC50 values: in the presence of 40 nM obatoclax, Fig. 4-4. The method, then:
In this example, the drug sensitivity of MIK665, an Mcl-1 inhibitor, was evaluated in NOS-10 cells. Various concentrations (i.e., 0, 1, 3, 10, 30, 100, 300, 1000, 3000, 10000, 30000 nM) of MIK665 (TargetMol) were administered, and cell viability was measured using CellTiter-Glo assay reagent 72 hours after drug treatment. As a control, osteosarcoma cells MG-63 cells, without amplification of the copy number of MCL1, were used. Data are shown as MG-63 mean ± SD (n = 3).
(§1) Specifically, four types of osteosarcoma cells (i.e., NOS-10 cells, Sa-xeno-147 cells, G-292 cells, and Sa-xeno-184 cells) were treated with six types of BH3 mimetics (i.e., obatoclax, navitoclax, venetoclax, A-1331852, AZD5991, and MIK665), and the cell viability of the osteosarcoma cells was measured.
Meanwhile, the combined effect of AZD5991 and 3 µ(micro)M Navitoclax on cell viability of NOS-10 cells was examined. Cell viability was measured using CellTiter-Glo assay reagent 72 hours after drug treatment. Data are shown as mean ± SD (n = 3).
(§2) Specifically, the present inventors investigated the combined effects of 40 nM obatoclax with DOX (Fig. 4-4(E), Fig. 4-5(A)), with CDDP (Fig. 4-4(F), Fig. 4-5(B)), and with MTX (Fig. 4-4(G), Fig. 4-5(C)) on cell viability in NOS-10 cells and Sa-xeno-147 cells. Cell viability was measured for each cell 72 hours after each drug treatment using CellTiter-Glo assay reagent. All data are shown as mean ± SD (n = 3). IC50 values were calculated and the data were graphed using GraphPad Prism.
To identify suitable combination partners of Mcl-1 inhibitors such as obatoclax for osteosarcoma treatment, further drug screening was performed using an in-house library of inhibitors in the presence of obatoclax in osteosarcoma cells. Specifically, the effect of combination of 35 nM obatoclax with an inhibitor out of 94 molecular targeted drugs in the library on cell viability of NOS-10 cells was examined. Cell viability was measured using CellTiter-Glo assay reagent 72 hours after the cells were treated with each combination of drugs. All data are shown as mean ± SD (n = 3). GraphPad Prism was used to calculate IC50 values and graph the data.
Background: In ATP-based viability assays light output follows the ATP content of the culture.

In a further data set the target is BCL-xL (Homo sapiens, UniProt Q07817). The note with it: cited from earlier work.
Another data set concerns the target BCL-2 (Homo sapiens, UniProt P10415). The conditions noted are these: cited from earlier work.
The conditions of data set [2]: serum; read-out: maximum concentration of obatoclax in serum (Cmax); cited from earlier work.
The next data set deals with osteosarcoma cell lines. Kind of data set: IC50 of obatoclax, cell viability (CellTiter-Glo). Format: cell-based. The conditions noted are these: Homo sapiens; 11 osteosarcoma cell lines; 72 hours; compared with Cmax; Fig. 4-3. The protocol: In this example, G-292 cells, NY cells, NOS-1 cells, NOS-10 cells, HuO9 cells, SJSA-1 cells, MG-63 cells, HuO-3N1 cells, HOS cells, Sa-xeno-147 cells, and Sa-xeno-184 cells were used as osteosarcoma cell lines, and LC-2/ad cells, H2228 cells, H226 cells, H3122 cells, and A549 cells were used as lung adenocarcinoma cell lines.
After 72 hours from treatment with obatoclax, the cell viability of each cell was measured using the CellTiter-Glo Assay reagent. The IC50 value was calculated using Prism software.

The next data set deals with Sa-xeno-147 cells. Nature of the data set: Cell viability (CellTiter-Glo). The format is cell-based, human. The note with it: for IC50 values: in the presence of 40 nM obatoclax, 72 hours, Fig. 4-5; for cell viability: BH3 mimetic drug sensitivity, Fig. 4-1. The method, then:
as §1, §2

A further data set has as its system G-292 cells. Kind of data set: Cell viability, BH3 mimetic drug sensitivity. The format is cell-based, human. The note with it: cells with BCL2L1 amplification, Fig. 4-1. The protocol:
as §1

Data set [3] concerns osteosarcoma cells. Kind of data set: Cell viability, combined use of Mcl-1 inhibitor and Bcl-xL inhibitor. Format: cell-based. The text has this: In this example, AZD5991 or MIK665 was used as an Mcl-1 inhibitor, and A-1331852 was used as a Bcl-xL inhibitor.
The test system of data set [4] is osteosarcoma cells. Kind of data set: Inhibitor library drug screening, cell viability (CellTiter-Glo). Format: cell-based, human. The note with it: nine osteosarcoma cell lines and two PDC, 72 hours, heatmap Fig. 1A. The method, then: The nine human osteosarcoma cell lines (MG-63 cells, NY cells, HOS cells, HuO9 cells, HuO-3N1 cells, SJSA-1 cells, NOS-1 cells, NOS-10 cells, and G-292 clone A141B1 (G-292) cells) were purchased from the American Type Culture Collection, the RIKEN BioResource Research Center, or the Japanese Collection of Research Bioresources Cell Bank (JCRC) and used at lower passage numbers.
Specifically, • MG-63 cells, NY cells, and HOS cells were cultured in 96-well plates using MEM (Wako) comprising 10% FBS (CORNING), 1% non-essential amino acid solution (Wako), and 100 µ(micro)g/mL kanamycin (MEIJI), • HuO9 cells, HuO-3N1 cells, SJSA-1 cells, NOS-1 cells, and NOS-10 cells were cultured in 96-well plates using RPMI-1640 medium (Wako) comprising 10% FBS and 100 µ(micro)g/mL kanamycin. • G-292 clone A141B1 (G-292) cells were cultured in 96-well plate using McCoy's 5a medium comprising 10% FBS, • Sa-xeno-147 and Sa-xeno-184 cell lines were developed from patient-derived xenograft tumors and were cultured in collagen-coated dishes with RPMI 1640/Ham's F12 (1:1) medium comprising 15% FBS, 20 mM HEPES, and antibiotic-antimycotic solution (Sigma-Aldrich). Cells were cultured at 37°C and 5% CO2.
Cells were seeded in triplicate in 96-well plates (Greiner) or type I collagen-coated plates (IWAKI) at a density of 2000 cells/well and cultured for at least 24 h. After 72 hours of incubation with any of the 96 compounds of the library of the inhibitors, cells were incubated with CellTiter-Glo reagent (Promega) for 2 minutes on a Titramax 100 plate shaker (Heidolph), and after 10 minutes of equilibration, cell viability assays of each osteosarcoma cell were performed by measuring luminescence using a Tristar LB941 multimode microplate reader (Berthold Technologies). The cell viability was calculated as a ratio of the DMSO control to evaluate their effects on osteosarcoma cell proliferation (n=2).

Another data set deals with Sa-xeno-184 cells. Nature of the data set: Cell viability, BH3 mimetic drug sensitivity. The conditions noted are these: cells with MCL1 amplification, Fig. 4-1. The format is cell-based, human. The method, then: as §1
The subject of data set [5] is NOS-10 cells. Kind of data set: Mouse xenograft model, tumor volume. The format is in vivo, SCID beige mice. The note with it: obatoclax 5 mg/kg, OSI906 25 mg/kg, orally three times a week; MCL1-amplified xenograft; Fig. 6-2 (B). The protocol: Using obatoclax or AZD5991 as an Mcl-1 inhibitor, the present inventors used mouse xenograft models of osteosarcoma with MCL1-amplified osteosarcoma (NOS-10 cells) and without MCL1-amplified osteosarcoma (Sa-xeno-147 cells) to determine the efficacy of the combination of obatoclax or AZD5991 with OSI906. To prevent side effects such as weight loss, the drugs were administered three times a week at relatively low concentrations (experimental schemes are shown in Figures 5A and 5D). The changes in tumor volume of NOS-10 cells and Sa-xeno-147 cells by treatment of drugs was examined as follows. NOS-10 cells or Sa-xeno-147 cells were subcutaneously inoculated into immunodeficient SCID beige mice (CB17.Cg-PrkdcscidLystbg-J/CrlCrlj, Charles River Laboratories, Inc.) (5-6×10^6 cells/mouse or 1×10^6 cells/mouse) and orally treated three times a week with vehicle (30% PEG400, 0.5% Tween80, 5% propylene glycol in water), with obatoclax (5 mg/kg), with OSI906 (25 mg/kg), or with obatoclax + OSI906 (5 mg/kg and 25 mg/kg, respectively). […] All data are shown as mean ± SD (n = 4, n = 5, or n = 6). *p < 0.05 and **p < 0.01 are determined using the Mann-Whitney U test.

The target in the next data set is Mcl-1 (Homo sapiens, UniProt Q07820). The conditions noted are these: cited from earlier work.
The mark [6] stands for this setting: BH3 mimetic drug sensitivity, cells with MCL1 amplification, Fig. 4-1.

Where only a bound is given, the exact number is not on record here.

By IC50 is commonly meant the midpoint of a concentration-inhibition curve. A high value points to weaker potency.

Sequence of BCL-xL (Q07817 whole entry): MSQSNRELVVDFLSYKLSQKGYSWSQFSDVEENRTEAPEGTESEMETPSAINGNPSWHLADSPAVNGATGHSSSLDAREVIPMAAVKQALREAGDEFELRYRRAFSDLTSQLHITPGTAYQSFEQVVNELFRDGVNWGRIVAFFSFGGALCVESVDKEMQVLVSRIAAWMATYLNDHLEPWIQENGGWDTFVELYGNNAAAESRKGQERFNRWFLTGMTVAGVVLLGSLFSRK
Sequence of BCL-2 (P10415 whole entry): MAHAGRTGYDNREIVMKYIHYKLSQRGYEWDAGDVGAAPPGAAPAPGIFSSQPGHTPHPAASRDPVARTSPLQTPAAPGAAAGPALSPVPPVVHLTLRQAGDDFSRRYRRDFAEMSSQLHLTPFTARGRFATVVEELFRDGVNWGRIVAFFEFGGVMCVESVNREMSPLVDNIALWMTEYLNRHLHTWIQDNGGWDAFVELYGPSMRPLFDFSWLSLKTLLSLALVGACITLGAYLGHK
Sequence of Mcl-1 (Q07820 whole entry): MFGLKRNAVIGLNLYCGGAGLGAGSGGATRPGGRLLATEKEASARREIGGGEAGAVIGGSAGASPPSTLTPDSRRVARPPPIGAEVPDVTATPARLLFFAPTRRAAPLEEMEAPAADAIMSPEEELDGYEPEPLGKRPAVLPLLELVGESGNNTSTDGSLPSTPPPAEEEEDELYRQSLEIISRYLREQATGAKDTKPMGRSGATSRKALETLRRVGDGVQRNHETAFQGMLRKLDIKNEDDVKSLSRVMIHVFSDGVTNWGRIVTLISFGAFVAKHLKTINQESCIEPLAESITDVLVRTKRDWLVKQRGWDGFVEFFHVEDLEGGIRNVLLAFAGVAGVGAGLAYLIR

Consider `COc1cc(N2CCC(N)CC2)ccc1Nc1ncc(Cl)c(-c2c[nH]c3ccccc23)n1` [AZD3463], for which, in the data set with NOS-10 cells [1] (72 hours), the IC50 value result is given as “significantly reduced” and the growth inhibitory effect entry is “enhanced”.

In the case of `Cc1cc(OCCCc2c3n(c4c(-c5c(C)nn(C)c5C)c(Cl)ccc24)[C@H](C)CN(c2cn(C)c4ccc(C(=O)O)cc24)C3=O)cc(C)c1Cl` [VU661013], at BCL-xL, the “inhibition of BCL-xL” value was “does not significantly inhibit”. In addition, the “inhibition of BCL-2” value on BCL-2 is “does not significantly inhibit”.

For `COC1=CC(c2cc3ccccc3[nH]2)=N/C1=C\c1[nH]c(C)cc1C` [obatoclax], the Cmax in [2] was 176 nM. Moreover, the IC50 with osteosarcoma cell lines was below 176 nM.

Take `CN(Cc1cnc2nc(N)nc(N)c2n1)c1ccc(C(=O)N[C@@H](CCC(=O)O)C(=O)O)cc1` [MTX, methotrexate]: the IC50 values result in the data set on Sa-xeno-147 cells and with NOS-10 cells [1] (72 hours) was “not decreased” throughout.

In the case of `Cc1c(-c2ccc(N3CCc4cccc(C(=O)Nc5nc6ccccc6s5)c4C3)nc2C(=O)O)cnn1CC12CC3CC(CC(C3)C1)C2` [A-1331852], the cell viability entry in the data set with G-292 cells is listed as “most effective in reducing cell viability”; in the data set on osteosarcoma cells [3] (A-1331852 alone, Fig. 3-5, Fig. 3-6) it was “almost no effect on reduction of cell viability”; in the data set on osteosarcoma cells [3] (A-1331852 in combination with AZD5991, Fig. 3-5) it was “strong effect on reduction of cell viability”; in the data set on osteosarcoma cells [3] (A-1331852 in combination with MIK665, Fig. 3-6) it was “strong effect on reduction of cell viability”.

With `COc1cccc2c1C(=O)c1c(O)c3c(c(O)c1C2=O)C[C@@](O)(C(=O)CO)C[C@@H]3O[C@H]1C[C@H](N)[C@H](O)[C@H](C)O1` [DOX, Doxorubicin], the IC50 values result with Sa-xeno-147 cells and in the data set with NOS-10 cells [1] (72 hours) was “not decreased” in each case.

Take `CC(C)C[C@H](NC(=O)[C@H](Cc1ccccc1)NC(=O)c1cnccn1)B(O)O` [bortezomib]: in the data set with osteosarcoma cells [4], the “osteosarcoma cell proliferation (cell viability)” value is “extensive inhibition of osteosarcoma cell proliferation”.

With `Cc1c2c(nn1C)CSCc1cc(n(C)n1)CSc1cc(c3ccccc3c1)OCCCc1c(C(=O)O)n(C)c3c-2c(Cl)ccc13` [AZD5991], the cell viability result is “moderate inhibitory effects” in the data set with Sa-xeno-147 cells; “reduce cell viability at relatively low concentrations” with Sa-xeno-184 cells; “increased the inhibitory effect on cell viability” in the data set with NOS-10 cells [1] (AZD5991 combined with 3 µM Navitoclax, 72 hours, Fig. 4-2); “reduce cell viability at relatively low concentrations” with NOS-10 cells [1] (setting [6]).

Turning to `Cc1c(-c2c(-c3ccc(F)o3)sc3ncnc(O[C@H](Cc4ccccc4OCc4ccnn4CC(F)(F)F)C(=O)O)c23)ccc(OCCN2CCN(C)CC2)c1Cl` [S63845], the “binding to BCL-XL” value at BCL-xL is given as “not to bind”. For the same molecule, on BCL-2, the “binding to BCL-2” value is reported as “not to bind”.

As to `[NH2][Pt]([NH2])([Cl])[Cl]` [CDDP, cisplatin], the IC50 values result in the data set with Sa-xeno-147 cells and with NOS-10 cells [1] (72 hours) was “not decreased” each time.

With `C[C@]1(O)C[C@@H](c2nc(-c3ccc4ccc(-c5ccccc5)nc4c3)c3c(N)nccn32)C1` [OSI906], the tumor growth entry in the data set on NOS-10 cells [5] was “little effect on tumor growth”. Further, in the data set with NOS-10 cells [1] (72 hours), the IC50 value result is “significantly reduced” and the growth inhibitory effect result is “enhanced”.

As to `CC(C)C[C@H](NC(=O)[C@H](CCc1ccccc1)NC(=O)CN1CCOCC1)C(=O)N[C@@H](Cc1ccccc1)C(=O)N[C@@H](CC(C)C)C(=O)[C@@]1(C)CO1` [carfilzomib], the “osteosarcoma cell proliferation (cell viability)” value with osteosarcoma cells [4] is recorded as “extensive inhibition of osteosarcoma cell proliferation”.

With MIK665, the cell viability result in the data set with Sa-xeno-147 cells is “moderate inhibitory effects”; in the data set on Sa-xeno-184 cells, “reduce cell viability at relatively low concentrations”; with NOS-10 cells [1] (setting [6]), “reduce cell viability at relatively low concentrations”; in the data set on NOS-10 cells [1] (low concentrations of MIK665 (range 0-30000 nM), 72 hours, compared to MG-63 cells without MCL1 amplification, Fig. 2), “reduced cell viability”.

Regarding `O=C(c1ccccc1O)c1[nH]c(Cl)c(Cl)c1-n1c(C(=O)c2ccccc2O)cc(Cl)c1Cl` [Marinopyrrole A], on BCL-xL, the “binding to BCL-XL” value is listed as “not to Bcl-XL”. Further, the “binding to Mcl-1” value at Mcl-1 is reported as “bind to Mcl-1”.

Values taken from patent EP4721758A1, “NOVEL MEDICINE FOR TREATING OSTEOSARCOMA” (Japanese Foundation For Cancer Research, priority 2023, dated 2024).
